# Experimental data as given in patent US8586354B2, “Adenoviruses, nucleic acids that code for the same and the use of said viruses” (priority 2003, dated 2013).
# Legend:
# U373 tumour cells = assay: Southern blot of adenoviral replication in U373 cells after cytostatic; format: cell-based
# Procedure: In order to determine the effect of Irinotecan on adenoviral replication 10^6 U373 tumour cells were plated in 10 cm^2 Petri dishes. In a first reaction 5 μM Irinotecan was added after 24 hours. After another 24 hours the cells were infected with 10 pfu/cell dl520. After incubation of 3 days without Irinotecan DNA was isolated in accordance with the procedure described in example 10.
# In a parallel reaction the thus prepared U373-cells were not pre-incubated with Irinotecan. After 48 hours of cultivating the cells without Irinotecan, they were infected with 10 pfu/cell dl520 and subsequently incubated without Irinotecan for another 3 days. DNA was isolated as described above.
# Subsequently 2 μg DNA were digested with restriction enzyme Kpn I and a Southern Blot analysis performed. A part of the adenoviral genome (position: 22734-24235) generated by means of PCR was used as a probe.
# In order to test the effect of Trichostatin A on adenoviral replication, 10^6 U373 tumour cells were plated in 10 cm^2 Petri dishes. After 24 hours 0.25, 0.5 and 0.75 μM Trichostatin A was added. After another 24 hours the cells were infected with 10 pfu/cell dl520.
# After 3 days of incubation in medium without Trichostatin DNA was isolated. Subsequently 2 μg DNA were digested with restriction enzyme Kpn I and a Southern Blot analysis performed. […]
# U2OS cells = assay: Oncolytic assay with daunorubicine, U2OS; format: cell-based, human; details: 40 ng/ml daunorubicine
# Procedure: (§1) In the practising of the oncolytic assays the following procedure was followed: 200,000 cells (HeLa and U2OS, respectively) were plated into each well of a 6 well plate. On the next day 40 ng/ml (final concentration) of daunorubicine were added. After 3 hours of incubation the cells were infected with 10 and 30 pfu dl520/cell, respectively. Subsequently, the cells were incubated in cytostatic free medium. After 3-5 days the cells were stained using crystal violet.
# HeLa cells = assay: Oncolytic assay with daunorubicine, HeLa; format: cell-based; details: 40 ng/ml daunorubicine
# Procedure: as §1
# [1] = system: Coxsackievirus-adenovirus-receptor (CAR); assay: FACS analysis of CAR expression on U373 cells; format: cell-based; details: 1 μM Trichostatin
# Procedure: 200,000 U373 cells were plated in 6 well plates. After 24 hours the cells were cultivated with 1 μM Trichostatin for 24 hours. After another 24 hours the cells were isolated. Subsequently, analysis of CAR expression was performed according to a standard protocol using Facs-analysis and the primary antibody anti-CAR clone RmcB from the company Upstate, and a rabbit-anti-mouse FITC as secondary antibody (company DAKO).
smiles,measurement,setting,value
CCc1c2c(nc3ccc(OC(=O)N4CCC(N5CCCCC5)CC4)cc13)-c1cc3c(c(=O)n1C2)COC(=O)[C@]3(O)CC [Irinotecan],adenoviral replication (dl520) compared to untreated control,"U373 tumour cells; 5 μM Irinotecan 24 h before 10 pfu/cell dl520, 3 days",significantly increased
COc1cccc2c1C(=O)c1c(O)c3c(c(O)c1C2=O)C[C@@](O)(C(C)=O)C[C@@H]3O[C@H]1C[C@H](N)[C@H](O)[C@H](C)O1 [daunorubicine],effect on replication of dl520,U2OS cells,induces the replication of dl520
same,effect on replication of dl520,HeLa cells,induces the replication of dl520
CC(/C=C/C(=O)NO)=C\[C@@H](C)C(=O)c1ccc(N(C)C)cc1 [Trichostatin A],adenoviral replication (dl520) compared to untreated controls,"U373 tumour cells; 0.25, 0.5 and 0.75 μM Trichostatin A 24 h before 10 pfu/cell dl520, 3 days",significantly increased
same,CAR-positive cells,[1],56.2%
